Experiments:
Type in all cases: cell-based
human TLR7 = target: T1, human TLR7 (Homo sapiens, UniProt Q9NYK1); assay: TLR7 inhibition reporter assay (HEK-Blue cells, SEAP reporter, gardiquimod stimulation); conditions: HEK-Blue cells overexpressing human TLR7, SEAP reporter, gardiquimod 7.5 μM
T1 construct: host or cells: HEK-Blue cells (HEK293-derived reporter line)
T1 sequence (Q9NYK1 27-1049): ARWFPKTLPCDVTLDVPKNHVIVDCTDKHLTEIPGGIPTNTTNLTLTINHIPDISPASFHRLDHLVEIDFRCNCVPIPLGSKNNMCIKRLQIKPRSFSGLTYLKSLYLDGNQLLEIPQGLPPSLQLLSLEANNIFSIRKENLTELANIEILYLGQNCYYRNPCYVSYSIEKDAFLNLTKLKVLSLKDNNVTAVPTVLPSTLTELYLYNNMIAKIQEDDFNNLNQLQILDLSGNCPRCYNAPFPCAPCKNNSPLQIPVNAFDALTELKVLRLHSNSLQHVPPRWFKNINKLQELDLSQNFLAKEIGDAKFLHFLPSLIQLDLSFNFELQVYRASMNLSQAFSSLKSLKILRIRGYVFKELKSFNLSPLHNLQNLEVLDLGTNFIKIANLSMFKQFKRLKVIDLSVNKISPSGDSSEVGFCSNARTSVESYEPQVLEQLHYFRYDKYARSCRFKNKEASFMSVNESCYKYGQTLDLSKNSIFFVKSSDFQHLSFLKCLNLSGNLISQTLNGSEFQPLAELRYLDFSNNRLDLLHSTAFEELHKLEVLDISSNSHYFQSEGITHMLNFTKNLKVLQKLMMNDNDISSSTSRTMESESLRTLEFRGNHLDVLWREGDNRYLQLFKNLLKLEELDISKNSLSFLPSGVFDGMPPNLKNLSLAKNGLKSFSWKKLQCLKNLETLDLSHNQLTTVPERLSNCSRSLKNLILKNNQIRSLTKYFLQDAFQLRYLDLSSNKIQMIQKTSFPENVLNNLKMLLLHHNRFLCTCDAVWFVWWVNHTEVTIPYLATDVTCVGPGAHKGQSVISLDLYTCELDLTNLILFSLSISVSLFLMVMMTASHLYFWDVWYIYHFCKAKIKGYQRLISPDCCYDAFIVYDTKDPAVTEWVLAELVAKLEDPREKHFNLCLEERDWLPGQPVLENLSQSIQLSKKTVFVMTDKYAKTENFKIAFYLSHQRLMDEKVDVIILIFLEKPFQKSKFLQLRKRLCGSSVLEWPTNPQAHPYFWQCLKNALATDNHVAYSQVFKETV
Procedure, shortened: (§1)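 Cells seeded per well (15000 TLR7, 20,000 TLR8, 25,000 TLR9); compound added over 0.05 nM–50 μM for 30 min at room temperature; agonist added (TLR7 gardiquimod 7.5 μM, TLR8 R848 15.9 μM, TLR9 ODN2006 5 nM); 22 h at 37 °C; SEAP measured; percent inhibition calculated.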

human TLR8 = target: T2, human TLR8 (Homo sapiens, UniProt Q9NR97); assay: TLR8 inhibition reporter assay (HEK-Blue cells, SEAP reporter, R848 stimulation); conditions: HEK-Blue cells overexpressing human TLR8, SEAP reporter, R848 15.9 μM
T2 construct: host or cells: HEK-Blue cells (HEK293-derived reporter line)
T2 sequence (Q9NR97 27-1041): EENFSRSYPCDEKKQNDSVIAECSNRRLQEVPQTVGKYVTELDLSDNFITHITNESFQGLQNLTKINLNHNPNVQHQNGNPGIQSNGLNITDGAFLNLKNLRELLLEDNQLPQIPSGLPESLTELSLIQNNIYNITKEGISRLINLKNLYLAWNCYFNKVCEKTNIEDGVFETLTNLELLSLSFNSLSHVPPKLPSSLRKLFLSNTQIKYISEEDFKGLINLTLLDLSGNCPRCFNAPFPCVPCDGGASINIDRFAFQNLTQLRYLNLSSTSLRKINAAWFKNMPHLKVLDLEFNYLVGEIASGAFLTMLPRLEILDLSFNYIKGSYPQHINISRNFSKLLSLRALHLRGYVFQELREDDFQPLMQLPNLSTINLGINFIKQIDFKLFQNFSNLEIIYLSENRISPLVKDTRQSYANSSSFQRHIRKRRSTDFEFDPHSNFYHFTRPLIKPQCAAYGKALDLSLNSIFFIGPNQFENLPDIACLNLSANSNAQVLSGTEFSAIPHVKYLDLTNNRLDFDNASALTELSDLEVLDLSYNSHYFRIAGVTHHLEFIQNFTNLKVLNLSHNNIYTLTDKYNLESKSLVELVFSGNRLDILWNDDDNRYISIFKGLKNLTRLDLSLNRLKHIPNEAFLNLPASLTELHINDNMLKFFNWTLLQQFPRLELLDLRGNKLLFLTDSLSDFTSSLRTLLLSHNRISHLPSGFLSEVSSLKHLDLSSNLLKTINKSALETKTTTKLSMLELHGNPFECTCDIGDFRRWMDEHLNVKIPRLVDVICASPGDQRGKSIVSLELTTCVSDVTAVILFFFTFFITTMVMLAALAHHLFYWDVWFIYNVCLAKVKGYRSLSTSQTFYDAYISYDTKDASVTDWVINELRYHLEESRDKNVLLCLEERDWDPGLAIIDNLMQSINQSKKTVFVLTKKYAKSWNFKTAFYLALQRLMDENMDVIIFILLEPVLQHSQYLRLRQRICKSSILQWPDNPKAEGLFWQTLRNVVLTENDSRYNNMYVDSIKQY
Procedure, shortened: as §1

human TLR9 = target: T3, human TLR9 (Homo sapiens, UniProt Q9NR96); assay: TLR9 inhibition reporter assay (HEK-Blue cells, SEAP reporter, ODN2006 stimulation); conditions: HEK-Blue cells overexpressing human TLR9, SEAP reporter, ODN2006 5 nM
T3 construct: host or cells: HEK-Blue cells (HEK293-derived reporter line)
T3 sequence (Q9NR96 26-1032): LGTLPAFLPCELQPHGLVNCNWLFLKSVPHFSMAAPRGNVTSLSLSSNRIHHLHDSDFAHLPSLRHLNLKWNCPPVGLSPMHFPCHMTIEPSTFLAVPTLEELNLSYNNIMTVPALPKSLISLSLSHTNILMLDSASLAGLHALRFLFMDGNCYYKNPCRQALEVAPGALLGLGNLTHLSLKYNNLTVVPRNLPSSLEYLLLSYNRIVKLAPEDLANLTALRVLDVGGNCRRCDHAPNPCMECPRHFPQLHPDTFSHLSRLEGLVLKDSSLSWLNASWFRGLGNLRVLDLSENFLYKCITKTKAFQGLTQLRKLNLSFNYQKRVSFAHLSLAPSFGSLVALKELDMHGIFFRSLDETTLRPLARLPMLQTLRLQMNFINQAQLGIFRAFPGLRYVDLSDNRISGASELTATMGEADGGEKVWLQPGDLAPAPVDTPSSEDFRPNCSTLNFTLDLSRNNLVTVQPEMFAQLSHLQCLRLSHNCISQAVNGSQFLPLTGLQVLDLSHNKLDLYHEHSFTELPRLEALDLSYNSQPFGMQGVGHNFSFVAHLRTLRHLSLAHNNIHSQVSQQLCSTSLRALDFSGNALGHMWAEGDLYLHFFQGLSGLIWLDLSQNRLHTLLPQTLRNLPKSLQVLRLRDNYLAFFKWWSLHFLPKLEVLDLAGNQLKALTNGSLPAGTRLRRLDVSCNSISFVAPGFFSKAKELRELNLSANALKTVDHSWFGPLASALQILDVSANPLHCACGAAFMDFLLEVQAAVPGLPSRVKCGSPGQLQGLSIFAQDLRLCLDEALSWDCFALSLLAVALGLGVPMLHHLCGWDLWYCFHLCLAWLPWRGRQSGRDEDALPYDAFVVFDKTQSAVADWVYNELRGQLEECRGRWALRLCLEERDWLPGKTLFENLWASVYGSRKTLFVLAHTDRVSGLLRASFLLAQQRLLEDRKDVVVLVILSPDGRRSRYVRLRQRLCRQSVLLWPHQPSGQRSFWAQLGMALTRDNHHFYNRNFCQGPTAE
Procedure, shortened: as §1

SMILES	IC50 (human TLR7)	IC50 (human TLR8)	IC50 (human TLR9)
Cc1cc(-c2[nH]c3ccc(C4CCN(CC(C)(C)O)CC4)cc3c2C(C)C)cc2ncnn12 [Example 756, 1-(4-(3-isopropyl-2-(5-methyl-[1,2,4]triazolo[1,5-a]pyridin-7-yl)-1H-indol-5-yl)piperidin-1-yl)-2-methylpropan-2-ol]	< 100 nM	< 100 nM	1000 to 50000 nM
CC(C)c1c(-c2ccc3ncnn3n2)[nH]c2ccc(C3CCN(CC(=O)N(C)C)CC3)cc12 [Example 278, 2-(4-(2-([1,2,4]triazolo[1,5-b]pyridazin-6-yl)-3-isopropyl-1H-indol-5-yl)piperidin-1-yl)-N,N-dimethylacetamide]	< 100 nM	< 100 nM	1000 to 50000 nM
Cc1cc(-c2[nH]c3ccc(C4CCN(CC(=O)N(C)C)CC4)cc3c2C(C)C)cc2nccnc12 [Example 395, 2-(4-(3-isopropyl-2-(8-methylquinoxalin-6-yl)-1H-indol-5-yl)piperidin-1-yl)-N,N-dimethylacetamide]	< 100 nM	< 100 nM	1000 to 50000 nM
Cc1cc(-c2[nH]c3ccc(C4CCN(C(=O)C5CC(=O)N(C)C5)CC4)cc3c2C(C)C)c2ccccc2n1 (stereo not drawn) [Example 638, 4-(4-(3-isopropyl-2-(2-methylquinolin-4-yl)-1H-indol-5-yl)piperidine-1-carbonyl)-1-methylpyrrolidin-2-one]	< 100 nM	100 to 1000 nM	> 50000 nM
CNCC(=O)N1CCC(c2ccc3[nH]c(-c4cnc5ncnn5c4)c(C(C)C)c3c2)CC1 [Example 555, 1-(4-(2-([1,2,4]triazolo [1,5-a]pyrimidin-6-yl)-3-isopropyl-1H-indol-5-yl)piperidin-1-yl)-2-(methylamino)ethan-1-one]	< 100 nM	100 to 1000 nM	1000 to 50000 nM
CNC(=O)CN1CCC(c2ccc3[nH]c(-c4cc(C)n5nc(C)cc5c4)c(C(C)C)c3c2)CC1 [Example 419, 2-(4-(2-(2,7-dimethylpyrazolo[1,5-a]pyridin-5-yl)-3-isopropyl-1H-indol-5-yl)piperidin-1-yl)-N-methylacetamide]	< 100 nM	100 to 1000 nM	1000 to 50000 nM
Cc1nc2cc(-c3[nH]c4ccc(C5CCN(C6COC6)CC5)cc4c3C(C)C)cc(C)c2o1 [Example 709, 5-(3-isopropyl-5-(1-(oxetan-3-yl)piperidin-4-yl)-1H-indol-2-yl)-2,7-dimethylbenzo[d]oxazole]	100 to 1000 nM	1000 to 50000 nM	1000 to 50000 nM
CNCCN1CCC(c2ccc3[nH]c(-c4ccnc5[nH]ncc45)c(C(C)C)c3c2)C(F)(F)C1 (stereo not drawn) [Example 674, 2-(3,3-difluoro-4-(3-isopropyl-2-(1H-pyrazolo[3,4-b]pyridin-4-yl)-1H-indol-5-yl)piperidin-1-yl)-N-methylethan-1-amine]	< 100 nM	< 100 nM	100 to 1000 nM
CC(C)c1c(-c2ccnc3c2ccn3S(C)(=O)=O)[nH]c2ccc(C3CCN(C(=O)CN(C)C)CC3)cc12 [Example 450, 2-(dimethylamino)-1-(4-(3-isopropyl-2-(1-(methylsulfonyl)-1H-pyrrolo[2,3-b]pyridin-4-yl)-1H-indol-5-yl)piperidin-1-yl)ethanone]	1000 to 50000 nM	< 100 nM	100 to 1000 nM
CC(C)c1c(-c2ccnc3[nH]ccc23)[nH]c2ccc(C3CCNCC3)cc12 [Example 1, 4-(3-isopropyl-5-(piperidin-4-yl)-1H-indol-2-yl)-1H-pyrrolo[2,3-b]pyridine]	< 100 nM	< 100 nM	1000 to 50000 nM
Cc1cc(-c2[nH]c3ccc(C4CCN(C(=O)CCN5CCC6CC65)CC4)cc3c2C(C)C)cn2nnnc12 (stereo not drawn) [Example 632, 3-(2-azabicyclo[3.1.0]hexan-2-yl)-1-(4-(3-isopropyl-2-(8-methyltetrazolo[1,5-a]pyridin-6-yl)-1H-indol-5-yl)piperidin-1-yl)propan-1-one]	< 100 nM	< 100 nM	1000 to 50000 nM
Cc1cc2nccn2cc1-c1[nH]c2ccc(C3CCN(C4CCOCC4)CC3)cc2c1C(C)C [Example 693, 6-(3-isopropyl-5-(1-(tetrahydro-2H-pyran-4-yl)piperidin-4-yl)-1H-indol-2-yl)-7-methylimidazo[1,2-a]pyridine]	< 100 nM	< 100 nM	100 to 1000 nM
CC(C)c1c(-c2cc(C(C)(C)O)c3nccn3c2)[nH]c2ccc(C3CCNCC3)cc12 [Example 134, 2-(6-(3-isopropyl-5-(piperidin-4-yl)-1H-indol-2-yl)imidazo[1,2-a]pyridin-8-yl)propan-2-ol]	< 100 nM	100 to 1000 nM	100 to 1000 nM
CC(C)c1c(-c2cnc3c(cnn3C)c2)[nH]c2ccc(C3CCN(CC(=O)N(C)C)CC3)cc12 [Example 367, 2-(4-(3-isopropyl-2-(1-methyl-1H-pyrazolo[3,4-b]pyridin-5-yl)-1H-indol-5-yl)piperidin-1-yl)-N,N-dimethylacetamide]	< 100 nM	< 100 nM	1000 to 50000 nM

From patent US11739098B2 (BRISTOL-MYERS SQUIBB COMPANY, priority 2017, dated 2023)
